Data as given in the NIST ThermoML archive (doi:10.1016/j.jct.2015.01.006).
Numbers after ± are expanded uncertainties.

Experiment: mn = molality of the nth substance listed, in mol/kg
Conditions: 298.15 K, 100 kPa, Liquid, Vibrating tube method

Q: With `[O]=[Re](=[O])(=[O])[OH]` [perrhenic acid] + O as the molecule, how does the mass density (m1 = 0.15) read?
A: 1027.57 ± 4.1 kg/m3

Q: And the mass density (m1 = 0.31)?
A: 1057.54 ± 4.2 kg/m3

Q: And the mass density (m1 = 0.46)?
A: 1087.27 ± 4.4 kg/m3

Q: And the mass density (m1 = 0.6)?
A: 1115.28 ± 4.5 kg/m3

Q: And the mass density (m1 = 0.75)?
A: 1143.92 ± 4.6 kg/m3

Q: What about the mass density (m1 = 0.89) of the same molecule?
A: 1169.78 ± 4.7 kg/m3

Q: And the mass density (m1 = 1.03)?
A: 1195.77 ± 4.8 kg/m3

Q: And the mass density (m1 = 1.17)?
A: 1220.36 ± 4.9 kg/m3

Q: And the mass density (m1 = 1.31)?
A: 1245.59 ± 5 kg/m3

Q: And the mass density (m1 = 1.45)?
A: 1270.29 ± 5.1 kg/m3

Q: And the mass density (m1 = 1.58)?
A: 1292.96 ± 5.2 kg/m3

Q: And the mass density (m1 = 1.71)?
A: 1316 ± 5.3 kg/m3

Q: And the mass density (m1 = 1.93)?
A: 1361.24 ± 5.5 kg/m3

Q: And the mass density (m1 = 2.38)?
A: 1429.34 ± 5.8 kg/m3

Q: And the mass density (m1 = 3.33)?
A: 1584.96 ± 6.5 kg/m3

Q: And the mass density (m1 = 3.78)?
A: 1649.71 ± 6.8 kg/m3

Q: What about the mass density (m1 = 4.08) of the same molecule?
A: 1693.28 ± 6.9 kg/m3

Q: What about the mass density (m1 = 4.29) of the same molecule?
A: 1716.22 ± 7 kg/m3

Q: What about the mass density (m1 = 4.63) of the same molecule?
A: 1782.41 ± 7.3 kg/m3

Q: What about the mass density (m1 = 4.72) of the same molecule?
A: 1791.73 ± 7.4 kg/m3

Q: What about the mass density (m1 = 4.96) of the same molecule?
A: 1821.44 ± 7.5 kg/m3

Q: What about the mass density (m1 = 5.23) of the same molecule?
A: 1856.73 ± 7.7 kg/m3

Q: What about the mass density (m1 = 5.45) of the same molecule?
A: 1877.16 ± 7.8 kg/m3

Q: And the mass density (m1 = 5.66)?
A: 1910.98 ± 8 kg/m3

Q: What about the mass density (m1 = 5.92) of the same molecule?
A: 1933.4 ± 8.1 kg/m3

Q: What about the mass density (m1 = 6.06) of the same molecule?
A: 1957.44 ± 8.2 kg/m3

Q: And the mass density (m1 = 6.26)?
A: 1978.54 ± 8.3 kg/m3

Q: And the mass density (m1 = 6.5)?
A: 2025.89 ± 8.5 kg/m3

Q: And the mass density (m1 = 6.8)?
A: 2054.75 ± 8.7 kg/m3

Q: What about the mass density (m1 = 7.05) of the same molecule?
A: 2069.04 ± 8.7 kg/m3

Q: What about the mass density (m1 = 7.13) of the same molecule?
A: 2085.82 ± 8.8 kg/m3

Q: What about the mass density (m1 = 7.42) of the same molecule?
A: 2107.74 ± 8.9 kg/m3

Q: What about the mass density (m1 = 7.44) of the same molecule?
A: 2117.26 ± 9 kg/m3

Q: And the mass density (m1 = 7.65)?
A: 2134.62 ± 9.1 kg/m3

Q: What about the mass density (m1 = 7.86) of the same molecule?
A: 2153.7 ± 9.2 kg/m3

Q: What about the mass density (m1 = 7.95) of the same molecule?
A: 2166.62 ± 9.3 kg/m3

Q: And the mass density (m1 = 8.2)?
A: 2192.45 ± 9.4 kg/m3

Q: What about the mass density (m1 = 11.82) of the same molecule?
A: 2516.75 ± 11 kg/m3
